# Test results as given in patent US9375438B2, “Inhibitors of NCCa-ATP channels for therapy” (University of Maryland, Baltimore, priority 2007, dated 2016).
# Key:
# [1] = test system: rats with hemi-cervical spinal cord contusion (SCI); assay: SCI model: extravasated blood in cord (tissue blood); assay type: in vivo, rat; conditions: for PHN: following SCI (summary)
# Protocol: (§1) SCI injury model. This study was performed in accordance with the guidelines of the Institutional Animal Care and Use Committee. Adult female Long-Evans rats (275-350 gm) were anesthetized (Ketamine, 60 mg/kg plus Xylazine, 7.5 mg/kg, i.p.). The dura at C4-5 was exposed via a left hemilaminectomy. A hemi-cervical spinal cord contusion was created using a blunt force impactor (1.3-mm impactor head driven by a 10 gm weight dropped vertically 25 mm) (Soblosky et al., 2001; Gensel et al., 2006). After SCI, animals were given 10 ml of glucose-free normal saline s.q. Rectal temperature was maintained at ˜37° C. using a servo-controlled warming blanket.
# (§2) For in vivo gene suppression of SUR1, we used oligodeoxynucleotides that were phosphorothioated at 4 distal bonds to protect against endogenous nucleases (35).
# Tissue blood. Rats were sacrificed at various times after SCI (n=5-11 rats/group), were perfused with heparinized saline to remove intravascular blood, and 5-mm segments of cord encompassing the lesion were homogenized and processed as described (Choudhri et al., 1997).
# [2] = test system: rats with hemi-cervical spinal cord contusion (SCI); assay: SCI model: lesion size; assay type: in vivo, rat; conditions: following SCI; compared to controls (summary)
# Protocol: as §1, with “blanket. Blood gases and serum glucose 10-15 min post-SCI were: pO2, 95±6 mm Hg; pCO2, 46±3 mm Hg; pH, 7.33±0.01; glucose 258±17 mg/dl in controls and pO2, 96±7 mm Hg; pCO2, 45±2 mm Hg; pH, 7.37±0.01; glucose 242±14 mg/dl in glibenclamide-treated animals.” for “blanket.”
# Drug delivery. […] During the course of the project, slightly different formulations of drug were used, with the best results obtained using stock solutions made by placing 50 mg (or 25 mg) of drug into 10 ml DMSO, and infusion solutions made by placing 400 μl (or 800 μl) stock into 4.6 ml (or 4.2 ml) unbuffered saline (0.9% NaCl) and adjusting the pH to ˜8.5 using 0.1 N NaOH.
# Lesion size. At 7 d post-SCI, cords were paraffin sectioned and stained with H&E. Lesion volumes were calculated from lesion areas measured on serial sections every 250 μm.
# (§3) Immunohistochemistry. Cryosections were immunolabeled (Chen et al., 2003; Simard et al., 2006) using primary antibodies directed against SUR1 (Santa Cruz, C-16; 1:200; 1 h at RT, 48 h at 4° C.), SUR2 (Santa Cruz, H-80; 1:200; 1 h at RT, 48 h at 4° C.), GFAP (Sigma, C-9205; 1:500), and vimentin (Sigma, monoclonal CY3 conjugated; 1:100). Quantitative immunofluorescence was performed as described (Gerzanich et al., 2003).
# [3] = test system: rats with hemi-cervical spinal cord contusion (SCI); assay: SCI model: neurobehavioral assessment (inclined plane, paw placement, rearing); assay type: in vivo, rat
# Protocol: as §1, §2
# Neurobehavioral Assessment. All measurements were performed by blinded evaluators. Performance on the inclined plane was evaluated as described (Rivlin and Tator, 1977). To assess paw placement and vertical exploration (rearing) (Nikulina et al., 2004) animals were videotaped while in a translucent cylinder (19×20 cm). Rearing was quantified as the number of seconds spent with both front paws elevated above shoulder-height during a 3-min period of observation.
# [4] = test system: SUR1; assay: SUR1 knock-down in gliotic capsule (gelatin sponge implant), Western blot and astrocyte patch clamp; assay type: in vivo, rat; conditions: vs Scr-ODN
# Protocol: To validate the antisense strategy, it was first implemented in the model that was originally used for the discovery of the NCCa-ATP channel, wherein a gelatin sponge is implanted into the parietal lobe to stimulate formation of a gliotic capsule (Chen and Simard, 2001). Here, animals were also fitted with mini-osmotic pumps that delivered oligodeoxynucleotides (ODN), either antisense (AS) or scrambled (Scr), continuously for 7 d into the injury site.
# SUR1 knock-down in astrocytes was performed in triplicates by implanting rats with gelatin sponges in the parietal lobe to induce formation of a gliotic capsule containing reactive astrocytes that express the SUR1-regulated NCCa-ATP channel (Chen and Simard, 2001; Chen et al., 2003). At the same time, they were implanted with mini-osmotic pumps (Alzet, model 2002; 14-day pump) placed in the dorsal thoracolumbar region that contained ODN (711 μg/ml delivered @ 0.5 μl/h, yielding 1500 picomoles/day), with the delivery catheter placed directly into the site of the gelatin sponge implant in the brain. Animals were infused with Src-ODN or AS-ODN, as above but not phosphorothioated. After 10-14 days, the gelatin sponge plus encapsulating gliotic tissues were harvested and processed either for Western immunoblots or to obtain fresh reactive astrocytes for patch clamp electrophysiology. […]
# [5] = test system: SUR1; assay: SCI model: SUR1 immunolabeling of cord after i.v. ODN; assay type: in vivo, rat
# Protocol: as §1, with “blanket. Blood gases and serum glucose 10-15 min post-SCI were: pO2, 95±6 mm Hg; pCO2, 46±3 mm Hg; pH, 7.33±0.01; glucose 258±17 mg/dl in controls and pO2, 96±7 mm Hg; pCO2, 45±2 mm Hg; pH, 7.37±0.01; glucose 242±14 mg/dl in glibenclamide-treated animals.” for “blanket.”
# For in vivo gene suppression of SUR1, we used oligodeoxynucleotides that were phosphorothioated at 4 distal bonds to protect against endogenous nucleases (35). Within a few min of SCI, mini-osmotic pumps (Alzet 2002, 0.5 μl/h; Durect Corporation) with jugular vein catheters were implanted that delivered either scrambled sequence ODN (Scr-ODN) (5′-[…]-3′; SEQ ID NO:1) or antisense ODN (AS-ODN) (5′-[…]-3′; SEQ ID NO:2) (Yokoshiki et al., 1999) in PBS at a rate of 1 mg/rat/24 h.
# as §3
# [6] = target: native and recombinant β-cell KATP channels (Homo sapiens, UniProt Q09428); conditions: read-out: IC50, block of native and recombinant β-cell KATP channels; cited from earlier work
# native and recombinant β-cell KATP channels, sequence (Q09428 whole entry): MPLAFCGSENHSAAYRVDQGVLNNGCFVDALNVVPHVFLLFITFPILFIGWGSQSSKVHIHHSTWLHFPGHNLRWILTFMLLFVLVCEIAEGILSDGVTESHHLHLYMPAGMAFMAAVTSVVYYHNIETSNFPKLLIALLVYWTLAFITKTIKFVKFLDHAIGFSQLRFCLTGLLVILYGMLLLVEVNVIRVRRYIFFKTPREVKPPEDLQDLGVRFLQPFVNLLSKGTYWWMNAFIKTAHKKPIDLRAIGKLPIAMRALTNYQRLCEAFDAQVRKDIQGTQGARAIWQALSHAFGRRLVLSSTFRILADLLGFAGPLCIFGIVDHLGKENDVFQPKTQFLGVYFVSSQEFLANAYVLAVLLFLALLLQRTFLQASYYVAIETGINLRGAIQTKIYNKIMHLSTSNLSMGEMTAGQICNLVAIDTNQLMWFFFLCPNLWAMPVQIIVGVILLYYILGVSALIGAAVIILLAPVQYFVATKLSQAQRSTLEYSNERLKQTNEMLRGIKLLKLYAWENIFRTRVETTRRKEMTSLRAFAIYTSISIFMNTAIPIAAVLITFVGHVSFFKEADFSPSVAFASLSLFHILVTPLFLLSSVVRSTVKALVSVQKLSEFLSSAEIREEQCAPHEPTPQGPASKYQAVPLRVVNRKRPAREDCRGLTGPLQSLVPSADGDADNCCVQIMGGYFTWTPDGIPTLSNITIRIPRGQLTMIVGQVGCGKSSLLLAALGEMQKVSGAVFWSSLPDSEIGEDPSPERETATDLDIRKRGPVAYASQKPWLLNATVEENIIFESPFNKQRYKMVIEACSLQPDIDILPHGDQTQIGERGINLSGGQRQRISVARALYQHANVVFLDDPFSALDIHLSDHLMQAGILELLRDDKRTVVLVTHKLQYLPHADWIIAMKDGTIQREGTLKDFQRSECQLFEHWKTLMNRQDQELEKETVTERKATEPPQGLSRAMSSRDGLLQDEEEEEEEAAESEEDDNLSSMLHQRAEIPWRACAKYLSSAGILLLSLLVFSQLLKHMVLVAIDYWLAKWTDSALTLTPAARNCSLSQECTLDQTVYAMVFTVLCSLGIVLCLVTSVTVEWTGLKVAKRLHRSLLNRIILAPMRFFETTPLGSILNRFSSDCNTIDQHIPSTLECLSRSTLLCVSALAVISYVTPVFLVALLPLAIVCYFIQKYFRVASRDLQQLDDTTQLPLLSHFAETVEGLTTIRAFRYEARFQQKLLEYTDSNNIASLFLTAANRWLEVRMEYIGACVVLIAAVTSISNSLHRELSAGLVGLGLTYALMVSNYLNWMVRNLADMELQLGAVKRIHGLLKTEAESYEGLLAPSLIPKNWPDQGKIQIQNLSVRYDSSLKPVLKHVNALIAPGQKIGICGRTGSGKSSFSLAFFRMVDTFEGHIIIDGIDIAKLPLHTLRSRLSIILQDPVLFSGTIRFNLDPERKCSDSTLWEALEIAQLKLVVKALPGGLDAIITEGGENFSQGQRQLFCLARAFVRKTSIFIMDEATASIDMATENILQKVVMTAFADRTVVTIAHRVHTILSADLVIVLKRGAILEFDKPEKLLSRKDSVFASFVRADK
# native and recombinant β-cell KATP channels, sequence (Q14654 whole entry partner): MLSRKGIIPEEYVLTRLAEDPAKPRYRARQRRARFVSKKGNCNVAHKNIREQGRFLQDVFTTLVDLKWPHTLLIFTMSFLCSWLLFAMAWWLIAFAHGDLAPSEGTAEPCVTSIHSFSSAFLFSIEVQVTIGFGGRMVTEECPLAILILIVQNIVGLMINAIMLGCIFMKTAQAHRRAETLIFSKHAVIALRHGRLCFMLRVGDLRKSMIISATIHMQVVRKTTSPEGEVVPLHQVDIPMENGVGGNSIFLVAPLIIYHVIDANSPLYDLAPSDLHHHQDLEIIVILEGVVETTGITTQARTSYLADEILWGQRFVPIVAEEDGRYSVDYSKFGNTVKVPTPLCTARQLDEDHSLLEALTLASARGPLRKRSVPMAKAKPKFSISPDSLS
# [7] = target: T1, SUR1-regulated NCCa-ATP channel in human aortic endothelial cells (Homo sapiens, UniProt Q09428); assay: Perforated-patch whole-cell recording of endothelial cells, channel activation by diazoxide; assay type: cell-based
# T1 construct: host or cells: human aortic endothelial cells cultured under hypoxia
# T1 sequence (Q09428 whole entry): as the sequence (Q09428 whole entry) above
# T1 sequence (Q8TD43 whole entry partner): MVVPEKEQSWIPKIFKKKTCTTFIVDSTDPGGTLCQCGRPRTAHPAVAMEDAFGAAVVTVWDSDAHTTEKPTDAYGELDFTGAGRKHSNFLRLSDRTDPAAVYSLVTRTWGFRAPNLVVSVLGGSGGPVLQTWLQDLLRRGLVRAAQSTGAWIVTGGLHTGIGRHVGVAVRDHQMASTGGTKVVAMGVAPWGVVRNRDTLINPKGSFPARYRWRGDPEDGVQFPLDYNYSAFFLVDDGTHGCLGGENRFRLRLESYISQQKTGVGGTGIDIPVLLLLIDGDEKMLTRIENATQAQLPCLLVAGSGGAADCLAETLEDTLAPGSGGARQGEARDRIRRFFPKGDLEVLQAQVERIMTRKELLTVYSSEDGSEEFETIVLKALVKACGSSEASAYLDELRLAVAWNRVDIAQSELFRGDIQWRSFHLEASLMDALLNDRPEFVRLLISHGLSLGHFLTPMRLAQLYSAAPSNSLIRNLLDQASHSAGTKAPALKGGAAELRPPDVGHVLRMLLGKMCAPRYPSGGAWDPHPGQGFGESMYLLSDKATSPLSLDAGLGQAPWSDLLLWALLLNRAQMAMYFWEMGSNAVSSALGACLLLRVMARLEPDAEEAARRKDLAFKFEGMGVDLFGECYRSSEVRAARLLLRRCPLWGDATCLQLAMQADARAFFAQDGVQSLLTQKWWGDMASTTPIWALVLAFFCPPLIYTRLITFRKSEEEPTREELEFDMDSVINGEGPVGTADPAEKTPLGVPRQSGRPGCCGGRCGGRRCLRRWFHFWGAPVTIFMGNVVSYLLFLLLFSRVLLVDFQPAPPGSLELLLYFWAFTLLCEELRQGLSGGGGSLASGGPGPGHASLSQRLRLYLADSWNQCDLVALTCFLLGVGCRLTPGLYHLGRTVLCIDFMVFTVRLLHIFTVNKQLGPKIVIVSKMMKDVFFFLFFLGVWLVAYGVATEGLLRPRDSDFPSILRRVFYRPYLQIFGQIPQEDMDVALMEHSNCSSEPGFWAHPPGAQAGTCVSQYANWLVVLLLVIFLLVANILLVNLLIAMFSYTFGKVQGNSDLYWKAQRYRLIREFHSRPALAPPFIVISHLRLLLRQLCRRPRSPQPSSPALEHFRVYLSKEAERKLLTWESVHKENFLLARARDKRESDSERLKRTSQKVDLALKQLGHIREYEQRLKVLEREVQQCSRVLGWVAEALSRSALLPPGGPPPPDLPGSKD
# Protocol: Patch clamp of endothelial cells was performed using a nystatin-perforated patch technique, to maintain the metabolic integrity of the cells. The identity of the activated channel can be assessed by measurement of the “reversal potential”, the potential at which an ion channel current reverses from inward to outward. With physiologically relevant concentrations of ions intracellularly and extracellularly (high potassium inside, high sodium outside), the reversal potential can unambiguously distinguish between a K^+ channel current such as KATP, which reverses negative to −50 mV and a non-selective cation channel current such as NCCa-ATP, which reverses near 0 mV.
# Cell culture. Endothelial cell cultures from human brain microvessels, human aorta (ScienCell Research Laboratories), and murine brain microvessels (bEnd.3; ATCC), were grown at low density using media and supplements recommended by suppliers.
# [8] = target: SUR1-regulated NCCa-ATP channels (Rattus norvegicus, UniProt Q09429); conditions: read-out: EC50, block of NCCa-ATP channel; cited from earlier work
# [9] = 1 d post-SCI, ODN i.v., vs Scr-ODN
# [10] = repaglinide 200 ng/h s.q., n=3-8/group
compound,measurement,setting,value
"5′-GGCCGAGTGGTTCTCGGT-3′ (DNA, backbone and methylation of C not given here; phosphorothioate at 4 distal bonds) [AS-ODN]",blood in cord homogenates (effect),[1]; [9],reduced
same,PHN,[1],significantly reduced
same,reduction in lesion volume,[2],3 fold
same,performance in vertical exploration,[3]; [9],significantly better performance
same,performance on the inclined plane,[3]; [9],significantly better performance
same,SUR1 protein in gliotic capsule (Western blot),[4]; ODN infused into injury site,significant reduction
same,astrocyte depolarization on ATP depletion by Na azide,[4]; astrocytes from gliotic capsule,depolarized only slightly or not at all
same,SUR1 immunolabeling of cord,"[5]; 6 h post-SCI, ODN i.v. 1 mg/rat/24 h, vs controls",significantly less immunolabeling
same,normal expression of SUR1 in dorsal horn cells,"[5]; post-SCI, ODN i.v.",did not affect
same,necrotic void beneath impact site,"[5]; post-SCI, ODN i.v., vs Scr-ODN",no necrotic void was evident
CCOc1cc(CC(=O)N[C@@H](CC(C)C)c2ccccc2N2CCCCC2)ccc1C(=O)O [repaglinide],blood in cord homogenates,"[1]; 1 d post-SCI, repaglinide 200 ng/h s.q., 5-8 rats/group",1.2 ± 0.1 µL
same,PHN,[1],significantly reduced
same,reduction in lesion volume,[2],3 fold
same,vertical exploration,"[3]; repaglinide 200 ng/h s.q., 5-6 rats/group",27 ± 6 s
same,"inclined plane, head down",[3]; [10],47±3 degrees
same,"inclined plane, head up",[3]; [10],62±2 degrees
same,IC50,[6],0.9 to 7 nM
CC1=NS(=O)(=O)c2cc(Cl)ccc2N1 [diazoxide],current activated by diazoxide,[7]; endothelial cells cultured under hypoxic conditions,activated an ohmic current that reversed near 0 mV
same,current activated by diazoxide,[7]; endothelial cells cultured under normoxic conditions,"either had no effect or, in half of the cells, activated an outwardly rectifying current"
Nc1ncnc2c1ncn2[C@@H]1O[C@H](COP(=O)(O)OP(=O)(O)OP(=O)(O)O)[C@@H](O)[C@H]1O [ATP],EC50,[8],790 nM
